Values joined by “and” are separate entries in the source; they are usually repeats but may differ in a detail not shown here. Identical values can stand only once. Inconclusive results and toxic doses are left out. The calls were made as follows: active = survival T/C of 150% or more; inactive = T/C below 125% in these data. Peptide text beside a SMILES is read from it.
System: P388 leukemia ip, CD2F1 mice, survival T/C
Assay: NCI In Vivo Anticancer Drug Screen. Data for tumor model P388 Leukemia (intraperitoneal) in CD2F1 (CDF1) mice
Settings: endpoint: median survival time, higher = longer survival
Procedure, shortened: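 Mice carrying the transplanted tumor received test compound or vehicle. Survival was recorded in each group, and the value is the treated-group measurement divided by that of the vehicle-treated control group.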

[1] = dose: 100.0 mg/kg/injection, schedule: Q01DX009 (ip), vehicle: saline with Tween-80
[2] = dose: 100.0 mg/kg/injection, schedule: Q04DX003 (ip), vehicle: saline with Tween-80
[3] = dose: 200.0 mg/kg/injection, schedule: Q01DX009 (ip), vehicle: saline with Tween-80
[4] = dose: 200.0 mg/kg/injection, schedule: Q04DX003 (ip), vehicle: saline with Tween-80
[5] = dose: 50.0 mg/kg/injection, schedule: Q01DX005 (ip), vehicle: saline with Tween-80
[6] = dose: 100.0 mg/kg/injection, schedule: Q01DX005 (ip), vehicle: saline with Tween-80
[7] = dose: 200.0 mg/kg/injection, schedule: Q01DX005 (ip), vehicle: saline with Tween-80
[8] = dose: 12.5 mg/kg/injection, schedule: Q01DX009 (ip), vehicle: Klucel (hydroxypropylcellulose) (HPC)
[9] = dose: 25.0 mg/kg/injection, schedule: Q01DX009 (ip), vehicle: Klucel (hydroxypropylcellulose) (HPC)
[10] = dose: 50.0 mg/kg/injection, schedule: Q01DX009 (ip), vehicle: Klucel (hydroxypropylcellulose) (HPC)
[11] = dose: 100.0 mg/kg/injection, schedule: Q01DX009 (ip), vehicle: Klucel (hydroxypropylcellulose) (HPC)
[12] = dose: 200.0 mg/kg/injection, schedule: Q01DX009 (ip), vehicle: Klucel (hydroxypropylcellulose) (HPC)
[13] = dose: 60.0 mg/kg/injection, schedule: Q01DX005 (ip), vehicle: saline with Tween-80
[14] = dose: 120.0 mg/kg/injection, schedule: Q01DX005 (ip), vehicle: saline with Tween-80
[15] = dose: 240.0 mg/kg/injection, schedule: Q01DX005 (ip), vehicle: saline with Tween-80

Measured: T/C

Cc1ccc(S(=O)(=O)N/N=C/c2ccc(C(=O)O)cc2)cc1
inactive: dose: 12.5 mg/kg/injection, schedule: Q01DX009 (ip), vehicle: other 105 % of control | dose: 25.0 mg/kg/injection, schedule: Q01DX009 (ip), vehicle: other 111 % of control | dose: 50.0 mg/kg/injection, schedule: Q01DX009 (ip), vehicle: other 109 % of control | dose: 100.0 mg/kg/injection, schedule: Q01DX009 (ip), vehicle: other 100 % of control | dose: 200.0 mg/kg/injection, schedule: Q01DX009 (ip), vehicle: other 95 % of control | dose: 400.0 mg/kg/injection, schedule: Q01DX009 (ip), vehicle: other 105 % of control

O=C(Nc1ccc2c(c1)Cc1cccc(NC(=O)C(Cl)Cl)c1-2)C(Cl)Cl
inactive: [1] 90 % of control | [2] 91 % of control | [3] 95 % of control | [4] 91 % of control | dose: 400.0 mg/kg/injection, schedule: Q01DX009 (ip), vehicle: saline with Tween-80 100 % of control | dose: 400.0 mg/kg/injection, schedule: Q04DX003 (ip), vehicle: saline with Tween-80 87 % of control

CCOC1(OCC)N(S(=O)(=O)c2ccc(C)cc2)C(=O)C(=O)N1S(=O)(=O)c1ccc(C)cc1
inactive: dose: 100.0 mg/kg/injection, schedule: Q04DX002 (ip), vehicle: saline 100 % of control | dose: 200.0 mg/kg/injection, schedule: Q04DX002 (ip), vehicle: saline 106 % of control | dose: 400.0 mg/kg/injection, schedule: Q04DX002 (ip), vehicle: saline 103 % of control

Cc1nnc2sc(-c3cccc(Cl)c3)nn2c1=O
inactive: dose: 50.0 mg/kg/injection, schedule: Q04DX002 (ip), vehicle: Klucel (hydroxypropylcellulose) (HPC) 102 % of control | dose: 100.0 mg/kg/injection, schedule: Q04DX002 (ip), vehicle: Klucel (hydroxypropylcellulose) (HPC) 100 % of control | dose: 200.0 mg/kg/injection, schedule: Q04DX002 (ip), vehicle: Klucel (hydroxypropylcellulose) (HPC) 100 % of control

CC(=O)N1C(=O)CC23c4ccccc4C(=O)N2CCCN13 (stereo not given)
inactive: [5] 99 % of control | [6] 106 % of control | [7] 99 % of control

Cc1cnc(C)c(NN=O)n1
inactive: dose: 3.12 mg/kg/injection, schedule: Q01DX009 (ip), vehicle: saline 101 % of control and 108 % of control | dose: 6.25 mg/kg/injection, schedule: Q01DX009 (ip), vehicle: saline 116 % of control and 122 % of control | dose: 12.5 mg/kg/injection, schedule: Q01DX009 (ip), vehicle: saline 117 % of control

COc1cc(Br)c(C2=C3c4cc(OC)c(OC)cc4CCN3C(=O)C2=O)cc1OC
inactive: dose: 50.0 mg/kg/injection, schedule: Q01DX005 (ip), vehicle: Klucel (hydroxypropylcellulose) (HPC) 99 % of control | dose: 100.0 mg/kg/injection, schedule: Q01DX005 (ip), vehicle: Klucel (hydroxypropylcellulose) (HPC) 93 % of control | dose: 200.0 mg/kg/injection, schedule: Q01DX005 (ip), vehicle: Klucel (hydroxypropylcellulose) (HPC) 90 % of control

O=c1/c(=C/c2ccccc2)sc2nc(-c3ccccc3)nn12
inactive: [8] 87 % of control | [9] 88 % of control | [10] 89 % of control and 91 % of control | [11] 107 % of control | [12] 107 % of control

COc1cc(Br)c(CC(NC=O)c2ccc(OC)c(OC)c2OC)cc1OC (stereo not given)
inactive: [13] 107 % of control | [14] 100 % of control | [15] 100 % of control

c1ccc2n[nH]nc2c1
inactive: dose: 50.0 mg/kg/injection, schedule: Q01DX009 (ip), vehicle: saline 100 % of control | dose: 100.0 mg/kg/injection, schedule: Q01DX001 (ip), vehicle: saline with Tween-80 112 % of control | [1] 104 % of control | dose: 100.0 mg/kg/injection, schedule: Q01DX009 (ip), vehicle: saline 100 % of control | [2] 95 % of control | dose: 200.0 mg/kg/injection, schedule: Q01DX001 (ip), vehicle: saline with Tween-80 105 % of control | [3] 109 % of control | dose: 200.0 mg/kg/injection, schedule: Q01DX009 (ip), vehicle: saline 104 % of control | [4] 109 % of control

Cc1oc2ccccc2c(=O)c1Cn1nnc2ccccc21
inactive: [13] 103 % of control | [14] 103 % of control | [15] 94 % of control

O=[N+]([O-])c1ccc(-c2csc(NCC3CCCO3)n2)cc1 (stereo not given)
inactive: [10] 101 % of control | [11] 100 % of control | [12] 100 % of control

O=c1cccc(C2CC(CO)C3CCCCN3C2)[nH]1 (stereo not given)
inactive: dose: 1.1 mg/kg/injection, schedule: Q01DX009 (ip), vehicle: distilled water + Tween-80 + alcohol 86 % of control | dose: 1.5 mg/kg/injection, schedule: Q01DX009 (ip), vehicle: acid diluted with CMC 96 % of control | dose: 2.2 mg/kg/injection, schedule: Q01DX009 (ip), vehicle: acid diluted with CMC 99 % of control | dose: 2.2 mg/kg/injection, schedule: Q01DX009 (ip), vehicle: distilled water + Tween-80 + alcohol 93 % of control | dose: 4.5 mg/kg/injection, schedule: Q01DX009 (ip), vehicle: acid diluted with CMC 96 % of control | dose: 4.5 mg/kg/injection, schedule: Q01DX009 (ip), vehicle: distilled water + Tween-80 + alcohol 93 % of control | dose: 9.0 mg/kg/injection, schedule: Q01DX009 (ip), vehicle: acid diluted with CMC 99 % of control and 93 % of control | dose: 9.0 mg/kg/injection, schedule: Q01DX009 (ip), vehicle: distilled water + Tween-80 + alcohol 103 % of control | dose: 18.0 mg/kg/injection, schedule: Q01DX009 (ip), vehicle: acid diluted with CMC 94 % of control

FC(F)(F)c1cccc(N=c2ccn3ccccc3c2)c1
inactive: dose: 12.5 mg/kg/injection, schedule: Q01DX009 (ip), vehicle: saline with Tween-80 103 % of control | dose: 25.0 mg/kg/injection, schedule: Q01DX009 (ip), vehicle: saline with Tween-80 96 % of control | dose: 50.0 mg/kg/injection, schedule: Q01DX009 (ip), vehicle: saline with Tween-80 91 % of control and 94 % of control

NCCCCC(NC(=O)C(N)CCCN=C(N)N)C(=O)O (stereo not drawn) (H-Arg-Lys-OH; configuration not given here)
inactive: dose: 50.0 mg/kg/injection, schedule: Q01DX005 (ip), vehicle: saline 94 % of control | dose: 100.0 mg/kg/injection, schedule: Q01DX005 (ip), vehicle: saline 106 % of control | dose: 200.0 mg/kg/injection, schedule: Q01DX005 (ip), vehicle: saline 100 % of control

C=C1C(=O)OC2/C=C(\COC(C)=O)CCC(OC(C)=O)C3=CC(OC3=O)C12 (stereo not given)
inactive: dose: 1.87 mg/kg/injection, schedule: Q01DX009 (ip), vehicle: Klucel (hydroxypropylcellulose) (HPC) 95 % of control | dose: 3.75 mg/kg/injection, schedule: Q01DX009 (ip), vehicle: Klucel (hydroxypropylcellulose) (HPC) 102 % of control | dose: 7.5 mg/kg/injection, schedule: Q01DX009 (ip), vehicle: Klucel (hydroxypropylcellulose) (HPC) 96 % of control | dose: 15.0 mg/kg/injection, schedule: Q01DX009 (ip), vehicle: Klucel (hydroxypropylcellulose) (HPC) 117 % of control

COc1ccc(Cl)c2c1[nH]c1nc3nc4cc(Cl)ccc4n3nc12
inactive: dose: 12.5 mg/kg/injection, schedule: Q01DX005 (ip), vehicle: saline with Tween-80 90 % of control | dose: 25.0 mg/kg/injection, schedule: Q01DX005 (ip), vehicle: saline with Tween-80 94 % of control | [5] 101 % of control and 105 % of control | [6] 105 % of control | [7] 111 % of control

COc1cc(Br)c(/C=C/[N+](=O)[O-])cc1OC
inactive: [2] 116 % of control

COc1ccc2nc(N(C)C)cc(N(C)C)c2c1
inactive: [8] 94 % of control | [9] 94 % of control | [10] 87 % of control

CC(O)c1nc2c3ccccc3ccc2n1C (stereo not given)
inactive: [5] 96 % of control | [6] 93 % of control | [7] 92 % of control

CC(=O)ON=C(C1CC1)C1CC1
inactive: dose: 37.5 mg/kg/injection, schedule: Q01DX009 (ip), vehicle: other 100 % of control | dose: 75.0 mg/kg/injection, schedule: Q01DX009 (ip), vehicle: other 106 % of control | dose: 150.0 mg/kg/injection, schedule: Q01DX009 (ip), vehicle: other 100 % of control | dose: 300.0 mg/kg/injection, schedule: Q01DX009 (ip), vehicle: other 110 % of control
